Experimental data published in the NIST ThermoML archive (doi:10.1016/j.jct.2011.08.009).
Several values for one entry are separate records, joined by “and”; a condition that tells them apart may be missing. Equal values may be shown once. Numbers after ± are expanded uncertainties.

Conditions: Liquid, Closed cell (Static) method

Structure (SMILES)	vapor or sublimation pressure (293.15 K) [kPa]	vapor or sublimation pressure (293.88 K)	vapor or sublimation pressure (303.15 K) [kPa]	vapor or sublimation pressure (303.84 K)	vapor or sublimation pressure (313.15 K) [kPa]	vapor or sublimation pressure (313.81 K)	vapor or sublimation pressure (323.15 K) [kPa]	vapor or sublimation pressure (323.92 K) [kPa]	vapor or sublimation pressure (333.15 K) [kPa]	vapor or sublimation pressure (343.15 K) [kPa]	vapor or sublimation pressure (353.15 K) [kPa]	vapor or sublimation pressure (363.15 K) [kPa]	vapor or sublimation pressure (273.15 K) [kPa]	vapor or sublimation pressure (283.15 K) [kPa]	also measured
CCC(C)N (stereo unspecified) [2-butanamine]	18.43 ± 0.084	19.21 ± 0.056 kPa	29.11 ± 0.12	30.04 ± 0.081 kPa and 30.03 ± 0.081 kPa	44.25 ± 0.18	45.47 ± 0.12 kPa and 45.38 ± 0.12 kPa	65.05 ± 0.26	66.77 ± 0.16	92.82 ± 0.36	128.99 ± 0.5	175.09 ± 0.67	232.69 ± 0.88	–	–	vapor or sublimation pressure (274.06 K): 6.81 ± 0.027 kPa; vapor or sublimation pressure (274.09 K): 6.804 ± 0.027 kPa; vapor or sublimation pressure (283.91 K): 11.46 ± 0.038 kPa; vapor or sublimation pressure (333.91 K): 95.07 ± 0.22 kPa and 95.08 ± 0.22 kPa and 95.1 ± 0.22 kPa; vapor or sublimation pressure (343.86 K): 132.08 ± 0.3 kPa and 132.05 ± 0.3 kPa; vapor or sublimation pressure (353.9 K): 179.16 ± 0.39 kPa and 178.99 ± 0.39 kPa
O [water]	2.281 ± 0.023	–	4.172 ± 0.029	–	7.294 ± 0.039	–	12.25 ± 0.055	–	19.84 ± 0.08	31.11 ± 0.12	47.37 ± 0.17	70.25 ± 0.24	0.5817 ± 0.014	1.186 ± 0.021	–
NC1CCCCC1 [cyclohexylamine]	0.8833 ± 0.018	0.9229 ± 0.0085 kPa and 0.9217 ± 0.0085 kPa	1.596 ± 0.021	1.661 ± 0.011 kPa	2.756 ± 0.024	2.854 ± 0.014 kPa	4.573 ± 0.03	4.755 ± 0.018	7.32 ± 0.039	11.35 ± 0.052	17.98 ± 0.073	25.06 ± 0.095	0.2306 ± 0.011	0.4646 ± 0.013	vapor or sublimation pressure (274.3 K): 0.2512 ± 0.0031 kPa; vapor or sublimation pressure (283.86 K): 0.4861 ± 0.005 kPa; vapor or sublimation pressure (293.83 K): 0.9213 ± 0.0085 kPa; vapor or sublimation pressure (293.86 K): 0.9213 ± 0.0085 kPa; vapor or sublimation pressure (303.79 K): 1.661 ± 0.011 kPa; vapor or sublimation pressure (303.82 K): 1.66 ± 0.011 kPa; vapor or sublimation pressure (313.79 K): 2.852 ± 0.014 kPa; vapor or sublimation pressure (323.97 K): 4.757 ± 0.018 kPa; vapor or sublimation pressure (323.99 K): 4.757 ± 0.018 kPa and 4.758 ± 0.018 kPa; vapor or sublimation pressure (334 K): 7.563 ± 0.025 kPa; vapor or sublimation pressure (344 K): 12.08 ± 0.035 kPa; vapor or sublimation pressure (354.06 K): 17.65 ± 0.048 kPa; vapor or sublimation pressure (364.1 K): 25.96 ± 0.064 kPa; vapor or sublimation pressure (364.13 K): 25.94 ± 0.064 kPa and 25.96 ± 0.064 kPa
